Laboratory results published in paper PMC7251097, “Aspartate/asparagine-β-hydroxylase: a high-throughput mass spectrometric assay for discovery of small molecule inhibitors” (Scientific Reports, 2020).
Counter-ions that a name gives are not always drawn. Like-named read-outs stand apart in the source and are kept apart here.

Biological target: T1, His6-AspH315–758 (human aspartate/asparagine-β-hydroxylase, AspH) (Homo sapiens, UniProt Q12797)
T1 construct: N-Terminally His6-tagged human AspH315–758 (His6-AspH315–758) was produced in E. coli BL21 (DE3) cells; made in house; host or cells: E. coli BL21 (DE3), pET-28a(+) vector
T1 sequence (Q12797 315-758): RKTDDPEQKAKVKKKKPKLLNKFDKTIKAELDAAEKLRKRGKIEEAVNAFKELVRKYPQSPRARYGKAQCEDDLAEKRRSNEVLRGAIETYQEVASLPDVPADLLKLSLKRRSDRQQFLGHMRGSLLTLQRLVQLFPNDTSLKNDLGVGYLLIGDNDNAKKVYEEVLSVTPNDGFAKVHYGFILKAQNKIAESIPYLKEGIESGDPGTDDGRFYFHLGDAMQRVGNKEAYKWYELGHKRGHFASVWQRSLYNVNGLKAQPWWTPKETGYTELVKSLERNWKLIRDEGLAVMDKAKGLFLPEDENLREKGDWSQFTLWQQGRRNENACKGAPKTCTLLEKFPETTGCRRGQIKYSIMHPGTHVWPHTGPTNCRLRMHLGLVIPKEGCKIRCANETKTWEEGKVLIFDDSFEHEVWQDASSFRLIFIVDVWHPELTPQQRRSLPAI
Experiment: SPE-MS AspH inhibition assay (LOPAC screen at fixed 20 μM and IC50 dose-response), hydroxylation of cyclic peptide hFX-CP101–119
Format: biochemical

[1] = LOPAC compound at fixed 20 uM, plate 1, normalised to DMSO and 2,4-PDCA controls
[2] = LOPAC compound at fixed 20 uM, substrate conversion, plate 1
[3] = LOPAC compound at 20uM, plate 2, normalised to DMSO and 2,4-PDCA controls, read-out: Plate 2 (% inhibition)
[4] = LOPAC compound at 20uM, plate 2, conversion of substrate peptide
[5] = LOPAC compound at 20uM, plate 3, conversion of substrate peptide
[6] = LOPAC Plate 4, compound at 20 uM, substrate conversion

| SMILES | Plate 1 (% inhibition) [1] [%] | Plate 1 (% conversion) [2] [%] | further results |
| --- | --- | --- | --- |
| CC(=O)OCC1=C(C(=O)O)N2C(=O)[C@@H](NC(=O)Cc3cccs3)[C@H]2SC1 [Cephalothin sodium] | 9.86 | 32.56 |  |
| CC1=C(C(=O)O)N2C(=O)[C@@H](NC(=O)[C@H](N)C3=CCC=CC3)[C@H]2SC1 [Cephradine] | 23.03 | 28.14 |  |
| O=C(O)COCCN1CCN(C(c2ccccc2)c2ccc(Cl)cc2)CC1 (centres unmarked) [Cetirizine dihydrochloride] |  |  | inhibition at 20 µM [3]: -5.77% |
| COc1ccc2c(c[n+](C)c3c4cc5c(cc4ccc23)OCO5)c1OC [Chelerythrine chloride] | 8.68 |  | Plate 1 (% conversion): 32.96% |
| O=C(O)c1cc(O)cc(C(=O)O)n1 [Chelidamic acid] | 48.94 | 19.44 |  |
| Cc1ncsc1CCCl.Cl [Chlormethiazole hydrochloride] |  |  | Plate 1 (% conversion): 33.94%; Plate 1 (% inhibition): 5.75% |
| CN1C(=O)CCS(=O)(=O)C1c1ccc(Cl)cc1 (centres unmarked) [Chlormezanone] |  |  | Plate 2 (% conversion): 39.39%; inhibition at 20 µM (read-out: Plate 2 (% inhibition)): -10.3% |
| CCN(CC)CCCC(C)Nc1ccnc2cc(Cl)ccc12 (centres unmarked) [Chloroquine diphosphate] |  |  | Plate 1 (% conversion): 38.59%; Plate 1 (% inhibition): -8.09% |
| NS(=O)(=O)c1cc2c(cc1Cl)N=CNS2(=O)=O [Chlorothiazide] | -4.46 | 37.37 |  |
| CN(C)CCCN1c2ccccc2Sc2ccc(Cl)cc21 [Chlorpromazine hydrochloride] | -29.45 | 45.76 |  |
| CCCNC(=O)NS(=O)(=O)c1ccc(Cl)cc1 [Chlorpropamide] | -3.59 | 37.08 |  |
| CN(C)CC/C=C1/c2ccccc2Sc2ccc(Cl)cc21 [Chlorprothixene hydrochloride] | -27.95 | 45.26 |  |
| C[N+](C)(C)CCO.[Br-] [Choline bromide] |  |  | Plate 1 (% conversion): 37.78%; Plate 1 (% inhibition): -5.68% |
| O=C(O)CCC(=O)O.c1ccc(C2(c3ccccc3)CC2C2=NCCN2)cc1 (centres unmarked) [Cibenzoline succinate] |  |  | Plate 3 (% conversion): 24.00% |
| Cc1cc(C2CCCCC2)n(O)c(=O)c1 [Ciclopirox olamine, reference compound] |  |  | IC50 (50 nM His6-AspH315–758, 1.0 μM hFX-CP101–119, 3 μM 2OG, 2 μM Fe(II), 50 mM HEPES pH 7.5, 20 °C, mean ± SD, n = 2 (2,4-PDCA n = 10), read-out: IC50): 4.39 ± 0.71 µM |
| CN(C(=O)CCCOc1ccc2[nH]c(=O)ccc2c1)C1CCCCC1 [Cilostamide] | -8.28 | 38.65 |  |
| O=C1CCc2cc(OCCCCc3nnnn3C3CCCCC3)ccc2N1 [Cilostazol] | -4.97 | 37.54 |  |
| CN/C(=N/CCSCc1nc[nH]c1C)NC#N [Cimetidine] | -0.45 | 36.02 |  |
| CCn1nc(C(=O)O)c(=O)c2cc3c(cc21)OCO3 [Cinoxacin] | -6.95 | 38.21 |  |
| CC(C)(Oc1ccc(C2CC2(Cl)Cl)cc1)C(=O)O (centres unmarked) [Ciprofibrate] | -0.63 | 36.08 |  |
| c1ccc(C2CC2)c(OCC2=NCCN2)c1 [Cirazoline hydrochloride] |  |  | Plate 2 (% conversion) [4]: 38.17%; inhibition at 20 µM [3]: -6.62% |
| N.N.[Cl][Pt][Cl] [Cisplatin] |  |  | Plate 3 (% conversion) [5]: 31.15% |
| CN(C)CCCC1(c2ccc(F)cc2)OCc2cc(C#N)ccc21 (centres unmarked) [Citalopram hydrobromide] | -13.21 | 40.31 |  |
| Cl.Clc1ccc(Cn2c(CN3CCCC3)nc3ccccc32)cc1 [Clemizole hydrochloride] | -13.99 | 40.57 |  |

| SMILES | Plate 1 (% inhibition) [1] [%] | Plate 1 (% conversion) [2] [%] | further results |
| --- | --- | --- | --- |
| O=P(O)(O)C(Cl)(Cl)P(=O)(O)O [Clodronic acid, reference compound] |  |  | inhibition at 20 µM (AspH activity, fixed compound concentration 20 μM, initial LOPAC screen, 0.5%v/v DMSO, read-out: Inhibition at 20 µM [%]): 100%; Plate 2 (% conversion) [4]: 2.30%; inhibition at 20 µM [3]: 101% |
| CCOC(=O)C(C)(C)Oc1ccc(Cl)cc1 [Clofibrate] | -11.71 | 39.80 |  |
| CN(C)CCCN1c2ccccc2CCc2ccc(Cl)cc21 [Clomipramine hydrochloride] | -22.34 | 43.38 |  |
| Clc1cccc(Cl)c1N=C1NCCN1 [Clonidine hydrochloride] | -13.86 | 40.53 |  |
| C#CCN(C)CCCOc1ccc(Cl)cc1Cl [Clorgyline hydrochloride] |  |  | Plate 3 (% conversion) [5]: 42.76% |
| Clc1ccccc1C(c1ccccc1)(c1ccccc1)n1ccnc1 [Clotrimazole] | -28.43 | 45.42 |  |
| CN1CCN(C2=Nc3cc(Cl)ccc3Nc3ccccc32)CC1 [Clozapine] | -11.65 |  | Plate 1 (% conversion): 39.79% |
| COc1cc2c(c(OC)c1OC)-c1ccc(OC)c(=O)cc1[C@@H](NC(C)=O)CC2 [Colchicine] |  |  | Plate 1 (% conversion): 37.55%; Plate 1 (% inhibition): -5.00% |
| C[C@]12CCC(=O)C=C1CC[C@@H]1[C@@H]2CC[C@@]2(C)[C@H]1CC[C@]2(O)C(=O)CO [Cortexolone] |  |  | % conversion [6]: 39.11% |
| C[C@]12C[C@H](O)[C@H]3[C@@H](CCC4=CC(=O)CC[C@@]43C)[C@@H]1CC[C@@H]2C(=O)CO [Corticosterone] | -6.36 | 38.01 |  |
| CC(=O)OCC(=O)[C@@]1(O)CC[C@H]2[C@@H]3CCC4=CC(=O)CC[C@]4(C)[C@H]3C(=O)C[C@@]21C [Cortisone 21-acetate] | 4.10 | 34.50 |  |
| C[C@]12CCC(=O)C=C1CC[C@@H]1[C@@H]2C(=O)C[C@@]2(C)[C@H]1CC[C@]2(O)C(=O)CO [Cortisone] | -8.46 | 38.71 |  |
| C[C@@H](Oc1cc(-c2cnn(C3CCNCC3)c2)cnc1N)c1c(Cl)ccc(F)c1Cl [Crizotinib] |  |  | Plate 5 (% inhibition) (plate 5 (Pfitzer), test compounds at fixed 20 μM): -31.92%; Plate 5 (% conversion) (plate 5 (Pfitzer), test compounds at fixed 20 μM, mean conversion DMSO 32.88): 47.18% |
| CN(C)CCC=C1c2ccccc2C=Cc2ccccc21 [Cyclobenzaprine hydrochloride] | -15.86 | 41.20 |  |
| O=P1(N(CCCl)CCCl)NCCCO1 (centres unmarked) [Cyclophosphamide monohydrate] |  |  | Plate 1 (% conversion): 38.48%; Plate 1 (% inhibition): -7.77% |
| CN1CCC(=C2c3ccccc3C=Cc3ccccc32)CC1 [Cyproheptadine hydrochloride] | -17.18 | 41.64 |  |
| CC(=O)O[C@]1(C(C)=O)CC[C@H]2[C@@H]3C=C(Cl)C4=CC(=O)[C@@H]5C[C@@H]5[C@]4(C)[C@H]3CC[C@@]21C [Cyproterone acetate] | -9.70 | 39.13 |  |
| NCCSSCCN [Cystamine dihydrochloride] | -7.76 | 38.48 |  |
| Cl.NCCS [Cysteamine hydrochloride] |  |  | Plate 3 (% conversion) [5]: 40.01% |
| S=C([S-])OC1CC2CC1C1CCCC21.[K+] [D-609 potassium] |  |  | % conversion: 29.00% |
| N[C@@H]1CON=C1O [D-Cycloserine] | -7.97 | 38.55 |  |
| N[C@H](CO)C(=O)O [D-Serine] |  |  | % conversion [6]: 29.64% |
| OC[C@H]1OC(n2cnc3ccccc32)[C@H](O)[C@@H]1O (stereo partly drawn) [D-ribofuranosylbenzimidazole] |  |  | Plate 2 (% conversion) [4]: 37.89%; Plate 2 (% inhibition) (LOPAC compound at 20uM, plate 2, normalised to DMSO and 2,4-PDCA controls): -5.77% |
